Laboratory results reported in paper PMC7409197, “Adenosine Receptors as Neuroinflammation Modulators: Role of A1 Agonists and A2A Antagonists” (Cells, 2020).

What was measured:
mixed glial cells [1] = assay: CellTiter 96 AQueous One (MTS) cell viability, ligands alone, mixed glial cells; format: cell-based, rat; conditions: for toxicity in vitro (cell viability): compared with CCPA and ZM241385; for cell viability vs. control: ligand alone
Method: (§1) Newborn male Wistar rats were sacrificed and mixed glial cell cultures were obtained from the cerebral cortices. Cerebral cortices were dissected, and meninges were cleared away. Tissues were treated with trypsin solution (trypsin 0.05% (w/v) trypsin-EDTA 5 mM) for 25 min at 37 °C. The tissue was fully disaggregated by pipetting and the dissociated cells were seeded in a 6-well plate with Dulbecco’s modified Eagle’s/High glucose medium enriched with 100 U/mL penicillin, 100 µg/mL streptomycin and 10% FBS. Fresh medium was changed the next day and then every 3 days decreasing the quantity of FBS. All experiments were carried out after 7–9 days of plating.
(§2) Mixed glial cell cultures were divided into 2 groups, one to study A1AR partial agonists and another for A2AAR antagonists. Cells from the first group were pre-treated with 2 µL at three different concentrations of C1 for 15, 30 or 60 min and then with further addition of a pro-inflammatory cocktail of cytokines (TNF-α, 20 ng/mL; IL-1β, 20 ng/mL; IFN-γ 20 ng/mL) for 48 h. […] To study C2 cells were pre-treated with the same CK cocktail for 48 h and then with 2 µL of C2 at three different concentrations for 15, 30, or 60 min (Scheme 1). ZM241385, a well known A2AAR antagonist, was used as reference compound. Furthermore, ligands and CK were tested alone for 15, 30 or 60 min and 48 h respectively.
(§3) 1.7 × 10^4 mixed glial cells were cultured in 98 μL of the specific medium in a 96 well plate overnight. The next day 2 μL of ligand or CK cocktail were added to the well. After all treatments, 20 µL of CellTiter 96® AQueous One Solution Reagent was added in a final volume of 100 µL. Absorbance was read at 490 nm using the plate reader GENiosPro. Cell viability was calculated as percentage using the following formula: Cell viability =OD mean of treated cells/OD mean of control cells × 100

mixed glial cells [2] = assay: MTS cell viability in cytokine cocktail (CK) inflammatory model, mixed glial cells; format: cell-based, rat
Method: as §1, §2, §3

mixed glial cells [3] = assay: Griess assay (nitrite production) in mixed glial cells; format: cell-based, rat; conditions: 30 min
Method: To test the antioxidant capacity of these new molecules Griess assay was performed. The Griess Reagent System is based in the conversion of sulphanilamide into an azo-compound with the presence of N-1-napthylenediamide dihydrochloride (NED) under acidic condition. 1.7 × 10^4 mixed glial cells were cultured in 98 μL of the specific medium in a 96 well plate overnight. After 24 h the media from each well of the cell culture was transferred into a 96 well plate and then 50 µL of the sulphanilamide solution was added to each well. After 5–10 min of incubation at room temperature (rt), 50 µL of the NED Solution were dispensed to all wells and they were incubated at rt for other 5–10 min. Absorbance was measured within 30 min in the plate reader GENiosPro with a filter between 520 nm and 550 nm. This experiment was performed 3–5 replicates. Concentration of NO¬¬¬¬2¯ in each sample was determined by comparison to a Nitrite standard reference curve.

mixed glial cells [4] = assay: Hoechst assay, cell area and circularity in mixed glial cells; format: cell-based, rat; conditions: compound 1 pre-treatment, compound 2 post-treatment, with CK cocktail
Method: This assay was carried out using Hoechst 33258. 6 × 10^5 mixed glial cells were seeded in a six well plate. After 24 h the media was eliminated, and cell cultures washed with PBS. Then, they were washed with acetic acid/methanol solution 50:50, again washed with PBS and incubated 10 min with a fixative solution. After this, cells were cleaned with distilled water and incubated light protected for 30 min at rt with Hoechst (1 µg/mL). Finally, the dye was discarded, and cells washed with water. Glycerol solution was added and cells were observed under an Olympus microscope. The cell area and circularity were measured using ImageJ as image analyzing software. Area and circularity were calculated as percentage using the following formula:(1) Area or circularity =area or circularity of treated cells/area or curcularity of control cells × 100

Sprague Dawley rats = assay: Y Maze short-term memory in LPS neuroinflammation rat model; format: in vivo; conditions: for short-term memory impairment by LPS (novel arm preference, Y Maze) / short-term memory performance, compound alone (Y Maze): rats; for short-term memory performance, compound alone (Y Maze): saline instead of LPS
Method: Animal procedures were performed in accordance with the European Community guidelines (Directive 2010/63/EU), Portuguese law on animal care (DL 113/2013), and approved by the Instituto de Medicina Molecular Internal Committee and the Portuguese Animal Ethics Committee (Direcção Geral de Veterinária). Environmental conditions were kept constant: food and water ad libitum, 21 ± 0.5 °C, 60% ± 10% relative humidity, 12 h light/dark cycles, 3–5 rats per double-decker ventilated cage. Male Sprague Dawley rats 8 weeks old were divided into the following groups (Table 1):
C1 was dissolved in 5% DMSO + 95% H2O to a final concentration of 7 mg/mL and C2 was dissolved in DMSO to a final concentration of 5 mg/mL. Accordingly, vehicle for G1 was 5% DMSO + 95% H2O and for G2 was DMSO.
Animals were anesthetized with a cocktail of 75 mg/kg ketamine + 1 mg/kg dexmedetomidine. Once rats were deeply anesthetized, the head was fixed into a stereotaxic frame and an incision made on the scalp to expose the skull. Coordinates for injection were AP -1.0, ML ± 1.5, DV -3.7 mm. For G1, LPS was delivered bilaterally 5 µL of a 1 µg/µL LPS solution per hemisphere, and C1 was delivered also i.c.v. 15 min before the LPS injection, 5 µL of a 7 µg/µL solution. Flow rate was kept at 1 µL/min, using an automatic injector coupled to a 10 µL hamilton syringe gauge 30. After each injection, 5 min were allowed for diffusion of the drugs before slowly removing the needle. After the procedure, rats were sutured, administered atipamezole (1 mg/kg) to reverse anesthesia, and brought back to a heated cage until fully recovered. For G2, rats were injected i.p. with a 2.5 mg/kg solution of C2, 30 min after the i.c.v. injection of LPS 5 µg/5 µL per hemisphere, in total of 10 µg. Rats were monitored for sickness behavior (body temperature, general activity) and given access to gel food in the first 48 h.
Y Maze is a behavior test useful to measure short-term spatial working memory. Animals are introduced in the maze always in the same starting position, at the end of the start arm. An initial habituation phase of 8 min, animals freely explore 2 of the arms, the 3rd being closed. Sixty minutes after the habituation period animals are placed again in the maze for 5 min this time with all 3 arms available to exploration. Using the Smart video tracing software, each animal’s route was registered. The time spent in the arm initially closed, which for the animal is the novel, unexplored environment, is calculated in relation to the time spent in the already familiar arms.

Row | SMILES | toxicity in vitro (cell viability) (mixed glial cells [1]) | cell viability vs. control (mixed glial cells [1]; 5.5 µM, 30 min) [%] | cell viability vs. control (mixed glial cells [1]; 30 µM, 15 min) [%] | cell viability vs. control (mixed glial cells [2]; pre-treatment 5.5 µM for 30 min, then CK cocktail 48 h) [%] | prevention of CK aggression (cell viability, words) (mixed glial cells [2]; pre-treatment before CK cocktail 48 h, C1 2-30 µM, CCPA 10 nM 30 min) | antioxidant activity (Griess) (mixed glial cells [3]; 5.5 µM, alone and in combination with CK) | cell area and circularity (Hoechst), effect against CK aggression (mixed glial cells [4]) | short-term memory impairment by LPS (novel arm preference, Y Maze) (Sprague Dawley rats; i.c.v. 5 µL of 7 µg/µL 15 min before i.c.v. LPS) | short-term memory performance, compound alone (Y Maze) (Sprague Dawley rats; i.c.v.) | cell viability vs. control (mixed glial cells [1]; 10 nM, 15 min) [%] | cell viability vs. control (mixed glial cells [1]; 10 nM, 30 min) [%] | cell viability vs. control (mixed glial cells [1]; 10 nM, 60 min) [%] | cell viability vs. control (mixed glial cells [1]; 60 nM, tendency to toxicity) [%] | cell viability vs. control (mixed glial cells [2]; CK cocktail 20 ng/mL 48 h, then ligand 5 nM for 15 min) [%] | cell viability vs. control (mixed glial cells [2]; CK cocktail 20 ng/mL 48 h, then ligand 10 nM for 30 min) [%] | nitrite levels in presence of CK cocktail (mixed glial cells [3]; 10 nM, after CK cocktail) | levels of nitrite produced (mixed glial cells [3]; 10 nM, alone) | blood brain barrier (BBB) crossing (Sprague Dawley rats; inferred from rescue of CNS insult after i.p. injection in rats) | short-term memory impairment by LPS (novel arm preference, Y Maze) (Sprague Dawley rats; 2.5 mg/kg i.p. 30 min after i.c.v. LPS) | short-term memory performance, compound alone (Y Maze) (Sprague Dawley rats; 2.5 mg/kg i.p.)
1 | OC[C@H]1O[C@@H](n2cnc3c(NC4CCCC4)nc(Cl)nc32)C[C@@H]1O [Compound C1, 2-chloro-N^6-cyclopentyl-2′-deoxyadenosine] | no toxic effect | 116 ± 1.7 | 117 ± 1.3 | 113 ± 3.1 | able to prevent the CK aggression | did not show any antioxidant activity | protective effect | rescued | reduction in the short-term memory performance | – | – | – | – | – | – | – | – | – | – | –
2 | CCn1c(Cl)nc2c(N)nc(OCCc3ccccc3)nc21 [Compound C2, 8-chloro-9-ethyl-2-phenethoxyadenine] | no toxic effect | – | – | – | – | – | protective effect | – | – | 110 ± 2.7 | 127 ± 3.1 | 125 ± 4.3 | ~80 | 138 ± 1.7 | 233 ± 3.4 | able to decrease the high nitrite levels | lower than those obtained in control | readily crosses the BBB | rescued | devoid of any effects in memory performance
